Experimental data published in ChEMBL document CHEMBL3421584, “Allosteric modulators: an emerging concept in drug discovery” (ACS Med Chem Lett, 2015).

These compounds were tested against Metabotropic glutamate receptor 2 (Homo sapiens) (UniProt Q14416) (assay: Negative allosteric modulation of human mGluR2 receptor expressed in CHO cell membranes assessed as inhibition of glutamate responses after 30 mins by [35S]GTPgammaS binding assay).
Format: functional

Chain of Metabotropic glutamate receptor 2 (Homo sapiens) (Q14416 19-872 limits assumed): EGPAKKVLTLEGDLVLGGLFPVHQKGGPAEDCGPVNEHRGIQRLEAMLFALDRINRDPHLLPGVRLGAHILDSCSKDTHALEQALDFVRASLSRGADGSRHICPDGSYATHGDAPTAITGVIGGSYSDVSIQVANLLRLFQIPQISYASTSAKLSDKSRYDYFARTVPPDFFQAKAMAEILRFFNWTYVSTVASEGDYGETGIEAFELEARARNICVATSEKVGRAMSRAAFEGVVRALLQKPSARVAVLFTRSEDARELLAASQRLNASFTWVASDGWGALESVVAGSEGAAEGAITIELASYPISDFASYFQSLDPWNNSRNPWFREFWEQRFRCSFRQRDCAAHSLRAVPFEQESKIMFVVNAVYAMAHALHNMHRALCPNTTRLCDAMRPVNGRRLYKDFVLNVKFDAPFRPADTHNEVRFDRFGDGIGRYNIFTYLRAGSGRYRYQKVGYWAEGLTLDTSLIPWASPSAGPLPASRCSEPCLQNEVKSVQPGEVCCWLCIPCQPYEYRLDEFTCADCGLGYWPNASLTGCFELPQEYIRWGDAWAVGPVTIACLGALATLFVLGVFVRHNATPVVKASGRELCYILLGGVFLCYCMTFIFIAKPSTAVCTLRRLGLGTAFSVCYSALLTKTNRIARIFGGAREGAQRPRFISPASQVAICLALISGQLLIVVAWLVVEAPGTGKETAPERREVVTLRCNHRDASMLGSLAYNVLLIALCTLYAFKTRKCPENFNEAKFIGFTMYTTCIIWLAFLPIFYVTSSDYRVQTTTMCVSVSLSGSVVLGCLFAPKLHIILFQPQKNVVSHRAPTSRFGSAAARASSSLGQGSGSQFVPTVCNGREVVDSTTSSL

| Emax | SMILES |
| --- | --- |
| 106% | CCC1CN(c2ccc(C(F)(F)F)cc2)C(=O)c2c(-c3ccnc(C)c3)cnn21 (centres undefined) |
| 49% | Cc1cc(-c2cnn3c2C(=O)N(c2ccc(C(C)O)cc2)C[C@@H]3C)ccn1 (some centres undefined) |
| 109% | C[C@H]1CN(c2ccc(C(F)(F)F)c(Cl)c2)C(=O)c2c(-c3ccnc(C#N)c3)cnn21 |
| 106% | Cc1cc(-c2cnn3c2C(=O)N(c2ccc(C(F)(F)F)cc2)C[C@@H]3C)ccn1 |
